# Laboratory results from patent US11554171B2, “Compounds and methods for the targeted degradation of bromodomain-containing proteins” (Arvinas Operations, Inc., priority 2015, dated 2023).
# Test system: c-myc in 22RV-1 cells
# Assay: Human c-myc ELISA assay
# Type: cell-based
# Details: Homo sapiens; for Emax: 22Rv1, 18 h, read-out: Degradation of BRD4: Maximum inhibition (%) c-Myc ELISA in 22RV1 cells; for DC50: 22Rv1, read-out: Degradation of BRD4: DC50 (uM) c-Myc ELISA in 22RV1 cells
# In short: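 22RV-1 cells treated 18 h with 8-point 1:3 compound dilutions (final top 300 nM or 1 μM, 0.1% DMSO). Cells lysed in RIPA buffer with protease/phosphatase inhibitors, and c-myc protein in cleared lysate quantified by ELISA against a standard curve. DC50 reported for c-myc suppression.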
Structure (SMILES),Emax,DC50
Cc1sc2c(c1C)C(c1ccc(Cl)cc1)=N[C@@H](CC(=O)N[C@H]1C[C@@H](Oc3ccc4oc(C(=O)N[C@H](C(=O)N5C[C@H](O)C[C@H]5C(=O)N[C@@H](C)c5ccc(-n6ccnc6C)cc5)C(C)(C)C)cc4c3)C1)c1nnc(C)n1-2 [Example 261],92.7%,0.01 to 0.1 µM
Cc1ncoc1-c1ccc(CNC(=O)[C@@H]2C[C@@H](O)CN2C(=O)[C@@H](NC(=O)COCCOCCCOc2ccc([C@@H](C)NC(=O)C[C@@H]3N=C(c4ccc(Cl)cc4)c4c(sc(C)c4C)-n4c(C)nnc43)cc2)C(C)(C)C)cc1 [Example 31],65%,0.1 to 1 µM
"Cc1ncsc1-c1ccc([C@H](C)NC(=O)[C@@H]2C[C@@H](O)CN2C(=O)[C@@H](NC(=O)c2cc3ccc(OCCNC(=O)C[C@@H]4N=C(c5ccc(Cl)cc5)c5c(sc(C)c5C)-n5c(C)nnc54)cc3o2)C(C)(C)C)cc1 [Example 210, (2S,4R)-1-[(2S)-2-{[6-(2-{2-[(9S)-7-(4-chlorophenyl)-4,5,13-trimethyl-3-thia-1,8,11,12-tetraazatricyclo[8.3.0.0^2,^6]trideca-2(6),4,7,10,12-pentaen-9-yl]acetamido}ethoxy)-1-benzofuran-2-yl]formamido}-3,3-dimethylbutanoyl]-4-hydroxy-N-[(1S)-1-[4-(4-methyl-1,3-thiazol-5-yl)phenyl]ethyl]pyrrolidine-2-carboxamide]",100%,< 0.01 µM
Cc1ncsc1-c1ccc([C@H](C)NC(=O)[C@@H]2C[C@@H](OC(=O)[C@@H](N)C(C)C)CN2C(=O)[C@@H](NC(=O)c2cc3cc(O[C@H]4C[C@@H](NC(=O)C[C@@H]5N=C(c6ccc(Cl)cc6)c6c(sc(C)c6C)-n6c(C)nnc65)C4)ccc3o2)C(C)(C)C)cc1 [Example 338],100%,< 0.01 µM
Cc1ncsc1-c1ccc([C@H](C)NC(=O)[C@@H]2C[C@@H](O)CN2C(=O)[C@@H](NC(=O)Cc2ccc(-c3cn(CCNC(=O)C[C@@H]4N=C(c5ccc(Cl)cc5)c5c(sc(C)c5C)-n5c(C)nnc54)cn3)cc2)C(C)(C)C)cc1 [Example 337],96.4%,< 0.01 µM
"Cc1ncsc1-c1ccc([C@H](C)NC(=O)[C@@H]2C[C@@H](O)CN2C(=O)[C@@H](NC(=O)CCc2cc(OCCNC(=O)C[C@@H]3N=C(c4ccc(Cl)cc4)c4c(sc(C)c4C)-n4c(C)nnc43)ccc2F)C(C)(C)C)cc1 [Example 142, (2S,4R)-1-[(2S)-2-{3-[5-(2-{2-[(9S)-7-(4-chlorophenyl)-4,5,13-trimethyl-3-thia-1,8,11,12-tetraazatricyclo[8.3.0.0^2,^6]trideca-2(6),4,7,10,12-pentaen-9-yl]acetamido}ethoxy)-2-fluorophenyl]propanamido}-3,3-dimethylbutanoyl]-4-hydroxy-N-[(1S)-1-[4-(4-methyl-1,3-thiazol-5-yl)phenyl]ethyl]pyrrolidine-2-carboxamide]",98%,< 0.01 µM
Cc1ncsc1-c1ccc([C@H](C)NC(=O)[C@@H]2C[C@@H](O)CN2C(=O)[C@@H](NC(=O)/C=C/c2ccc(F)c(O[C@H](C)CNC(=O)C[C@@H]3N=C(c4ccc(Cl)cc4)c4c(sc(C)c4C)-n4c(C)nnc43)c2)C(C)(C)C)cc1 [Example 161],97%,< 0.01 µM
"Cc1ncsc1-c1ccc([C@H](C)NC(=O)[C@@H]2C[C@@H](O)CN2C(=O)[C@@H](NC(=O)CN2CCC(O[C@H]3C[C@H](NC(=O)c4ccc5c6ncc(-c7c(C)noc7C)cc6n([C@H](c6ccccc6)C6CCOCC6)c5c4)C3)CC2)C(C)(C)C)cc1 [Example 365, (2S,4R)-1-[(2S)-3,3-dimethyl-2-(2-{4-[(1,3-trans)-3-[3-(dimethyl-1,2-oxazol-4-yl)-5-[(S)-oxan-4-yl(phenyl)methyl]-5H-pyrido[3,2-b]indole-7-amido]cyclobutoxy]piperidin-1-yl}acetamido)butanoyl]-4-hydroxy-N-[(1S)-1-[4-(4-methyl-1,3-thiazol-5-yl)phenyl]ethyl]pyrrolidine-2-carboxamide]",100%,< 0.01 µM
"Cc1ncsc1-c1ccc(CNC(=O)[C@@H]2C[C@@H](O)CN2C(=O)[C@@H](NC(=O)COCCCCn2cc(-c3ccc([C@@H](C)NC(=O)C[C@@H]4N=C(c5ccc(Cl)cc5)c5c(sc(C)c5C)-n5c(C)nnc54)cc3)cn2)C(C)(C)C)cc1 [Example 33, (2S,4R)-1-[(2S)-2-{2-[4-(4-{4-[(1R)-1-{2-[(9S)-7-(4-chlorophenyl)-4,5,13-trimethyl-3-thia-1,8,11,12-tetraazatricyclo[8.3.0.0^2,^6]trideca-2(6),4,7,10,12-pentaen-9-yl]acetamido}ethyl]phenyl}-1H-pyrazol-1-yl)butoxy]acetamido}-3,3-dimethylbutanoyl]-4-hydroxy-N-{[4-(4-methyl-1,3-thiazol-5-yl)phenyl]methyl}pyrrolidine-2-carboxamide]",100%,0.01 to 0.1 µM
Cc1ncsc1-c1ccc(CNC(=O)C2C[C@@H](O)CN2C(=O)[C@@H](NC(=O)COCCCOCCOc2cccc(NC(=O)C[C@@H]3N=C(c4ccc(Cl)cc4)c4c(sc(C)c4C)-n4c(C)nnc43)c2)C(C)(C)C)cc1 (stereo partly shown) [Example 94],98.5%,< 0.01 µM
"Cc1ncsc1-c1ccc(CNC(=O)[C@@H]2C[C@@H](O)CN2C(=O)[C@@H](NC(=O)COCCCOCCOc2ccc3c(c2)c2c(C(N)=O)cc(-c4c(C)noc4C)cc2n3Cc2ccccc2)C(C)(C)C)cc1 [Example 116, 9-benzyl-2-(dimethyl-1,2-oxazol-4-yl)-6-{2-[3-({[(2S)-1-[(2S,4R)-4-hydroxy-2-({[4-(4-methyl-1,3-thiazol-5-yl)phenyl]methyl}carbamoyl)pyrrolidin-1-yl]-3,3-dimethyl-1-oxobutan-2-yl]carbamoyl}methoxy)propoxy]ethoxy}-9H-carbazole-4-carboxamide]",100%,0.01 to 0.1 µM
Cc1ncsc1-c1ccc(CNC(=O)[C@@H]2C[C@@H](O)CN2C(=O)[C@H](c2cc(OCCN3CCC(NC(=O)C[C@@H]4N=C(c5ccc(Cl)cc5)c5c(sc(C)c5C)-n5c(C)nnc54)CC3)no2)C(C)C)cc1 [Example 315],11.4%,> 1 µM
Cc1ncsc1-c1ccc(CNC(=O)[C@@H]2C[C@@H](O)CN2C(=O)[C@@H](NC(=O)CCN2CCN(CCCNC(=O)C[C@@H]3N=C(c4ccc(Cl)cc4)c4c(sc(C)c4C)-n4c(C)nnc43)CC2)C(C)(C)C)cc1 [Example 102],34.5%,> 1 µM
Cc1ncsc1-c1ccc(CNC(=O)[C@@H]2C[C@@H](O)CN2C(=O)[C@@H](c2cc(Oc3ccc(O[C@H]4C[C@@H](NC(=O)C[C@@H]5N=C(c6ccc(Cl)cc6)c6c(sc(C)c6C)-n6c(C)nnc65)C4)nc3)no2)C(C)C)cc1 [Example 325],81.5%,0.01 to 0.1 µM
Cc1ncsc1-c1ccc([C@H](C)NC(=O)[C@@H]2C[C@@H](O)CN2C(=O)[C@@H](NC(=O)COCCOCCCOc2ccc([C@H](C)NC(=O)C[C@H]3N=C(c4ccc(Cl)cc4)c4c(sc(C)c4C)-n4c(C)nnc43)cc2)C(C)(C)C)cc1 [Example 109],< 5%,> 1 µM
Cc1ncsc1-c1ccc([C@H](C)NC(=O)[C@@H]2C[C@@H](O)CN2C(=O)[C@@H](NC(=O)CN2CCC(N3CCCN(C(=O)C[C@@H]4N=C(c5ccc(Cl)cc5)c5c(sc(C)c5C)-n5c(C)nnc54)CC3)CC2)C(C)(C)C)cc1 [Example 333],88%,0.01 to 0.1 µM
Cc1ncsc1-c1ccc([C@H](C)NC(=O)[C@@H]2C[C@@H](O)CN2C(=O)[C@@H](NC(=O)/C=C/c2cc(F)cc(O[C@H](C)CNC(=O)C[C@@H]3N=C(c4ccc(Cl)cc4)c4c(sc(C)c4C)-n4c(C)nnc43)c2)C(C)(C)C)cc1 [Example 202],94%,< 0.01 µM
Cc1sc2c(c1C)C(c1ccc(Cl)cc1)=N[C@@H](CC(=O)N[C@H]1C[C@H](Oc3ccc(CC(=O)N[C@H](C(=O)N4C[C@H](O)C[C@H]4C(=O)N[C@@H](C)c4ccc(-c5ncon5)cc4)C(C)(C)C)cc3)C1)c1nnc(C)n1-2 [Example 281],91.4%,0.01 to 0.1 µM
Cc1ncoc1-c1ccc(CNC(=O)[C@@H]2C[C@@H](O)CN2C(=O)[C@@H](C(C)C)n2cc(-c3ccnc(O[C@H]4C[C@@H](NC(=O)C[C@@H]5N=C(c6ccc(Cl)cc6)c6c(sc(C)c6C)-n6c(C)nnc65)C4)c3)cn2)cc1 [Example 294],43.4%,> 1 µM
Cc1ncsc1-c1ccc(CNC(=O)[C@@H]2C[C@@H](O)CN2C(=O)[C@H](C(C)C)n2cc(-c3ccnc(O[C@H]4C[C@H](NC(=O)C[C@@H]5N=C(c6ccc(Cl)cc6)c6c(sc(C)c6C)-n6c(C)nnc65)C4)c3)cn2)cc1 [Example 226],99%,0.01 to 0.1 µM
"Cc1ncsc1-c1ccc([C@H](C)NC(=O)[C@@H]2C[C@@H](O)CN2C(=O)[C@@H](NC(=O)c2cc3ccc(O[C@@H](C)CNC(=O)C[C@@H]4N=C(c5ccc(Cl)cc5)c5c(sc(C)c5C)-n5c(C)nnc54)cc3o2)C(C)(C)C)cc1 [Example 221, (2S,4R)-1-[(2S)-2-[(6-{[(2S)-1-{2-[(9S)-7-(4-chlorophenyl)-4,5,13-trimethyl-3-thia-1,8,11,12-tetraazatricyclo[8.3.0.0^2,^6]trideca-2(6),4,7,10,12-pentaen-9-yl]acetamido}propan-2-yl]oxy}-1-benzofuran-2-yl)formamido]-3,3-dimethylbutanoyl]-4-hydroxy-N-[(1S)-1-[4-(4-methyl-1,3-thiazol-5-yl)phenyl]ethyl]pyrrolidine-2-carboxamide]",100%,< 0.01 µM
Cc1ncsc1-c1ccc(CNC(=O)[C@@H]2C[C@@H](O)CN2C(=O)[C@@H](NC(=O)COCCN2CCC(c3ccc([C@@H](C)NC(=O)C[C@@H]4N=C(c5ccc(Cl)cc5)c5c(sc(C)c5C)-n5c(C)nnc54)cc3)CC2)C(C)(C)C)cc1 [Example 57],94%,0.1 to 1 µM
Cc1ncsc1-c1ccc(CNC(=O)[C@@H]2C[C@@H](O)CN2C(=O)[C@H](C(C)C)N2Cc3ccccc3C2=O)c(OCCOCCOCCCCOCCOCCNC(=O)C[C@@H]2N=C(c3ccc(Cl)cc3)c3c(sc(C)c3C)-n3c(C)nnc32)c1 [Example 6],100%,0.1 to 1 µM
